{"source": "patent US11472807B2", "about": "“Purine derivatives for use as medicament and for use in treating neurodegenerative or neuro-inflammatory disorders” (COMMISSARIAT À L'ENERGIE ATOMIQUE ET AUX ENERGIES …, priority 2017, dated 2022)", "key": {"IL-10": {"system": "IL-10", "test": "IL-10 mRNA in OHSC (RT-qPCR)", "type": "cell-based, mice", "details": "50 μM, 10 days", "experimental": "(§1) FIG. 10. Plots illustrating the effect of Aftin-5 on relative mRNA expression levels of interleukin-1-beta (IL-1β; (A)), interleukin-6 (IL-6; (B)), TNF-alpha (TNFα; (C)) and interleukin-10 (IL-10; (D)) in organotypic hippocampal slice cultures (OHSC). OHSC culture media […] were replaced by incubation medium containing Aftin-5 (50 μM; A50) or vehicle (0.1% DMSO; Veh). 10 days later, total mRNA in lysate was isolated and purified, cDNAs were then synthesized from […] of total mRNA. cDNAs were amplified by quantitative RT-PCR and the relative expression of specific genes was normalized to the housekeeping gene HPRT1 (2^−ΔCt). Mann-Whitney tests were performed and ***p<0.001 indicates significant differences between Aftin-5 and control conditions. Data expressed as means+/−SEM from q=3 independent experiments with n=4-6 inserts/condition and 10 slices/insert. […]\n(§2) The impact of Aftin-5 on gene expression of different biomarkers was determined by measuring mRNA levels of selected BDNF, CREB, PS95, INS Receptor/IGF-1 receptor, IL-1β, IL-6 in OHSC treated chronically with Aftin-5 or in a total brain from mice exposed to Aftin-5 at either 8 or 30 mg/Kg. […] Threshold cycles (Ct) of target gene and cyclophilin A (Ppia−control housekeeping gene) were recorded and gene expression was calculated as 2^−ΔΔCt(ΔΔCt=ΔCttreated−ΔCtcontrol, ΔCt=Cttarget−CtPpia). […]"}, "[1]": {"system": "non-spatial medium-term memory", "test": "Novel object recognition (NOR) test", "type": "in vivo, C57Bl/6J mice", "details": "WT mice, 8 mg/kg subcutaneous, 28 days", "experimental": "FIG. 14. Plots illustrating the effect of Aftin-5 on non-spatial medium-term memory. C57B1/6J mice were exposed sub-cutaneously to (A) the vehicle condition (DMSO/PEG) or (B) Aftin-5 at 8 mg/kg, during 28 days through an Alzet pump. 3-4 weeks later, cognitive abilities were assessed through different novel object recognition (NOR) tests, including the recognition of familiar objects (dark gray bars) or novel objects (light gray bars). Two-way ANOVA and Bonferroni post-hoc tests were performed and *p<0.05 indicates significant differences between Aftin-5 and control conditions, **p<0.01. Data expressed as means+/−SEM with n=15 mice/condition.\nThe NOR test is a test to assess the medium-term non-spatial memory (object). This test takes place in 3 sessions: the Open Field, the Familiarization session and the Test session. The first session allows the habituation of the mouse to the arena. The mouse is placed in the empty arena for 15 min. During this session, the velocity, locomotor activity and anxiety of the mouse are checked. The second session is to familiarize the animal with objects. For this, 24 hours after the Open Field, the mouse is placed in the arena containing two identical objects. The mouse will explore the arena and the two objects placed in the center for 10 min. Finally, after an interval of pre-established time (24 hours), the mouse is placed again in the same arena. […]"}, "IL-6": {"system": "IL-6", "test": "IL-6 mRNA in OHSC (RT-qPCR)", "type": "cell-based, mice", "details": "50 μM, 10 days, vs vehicle, P=0.06", "experimental": "as §1, §2"}, "PSD95": {"system": "PSD95", "test": "PSD95 mRNA in OHSC (RT-qPCR)", "type": "cell-based", "details": "OHSCs from WT mice, 50 μM, 10 days", "experimental": "FIG. 15. Plots illustrating the effect of Aftin-5 on relative mRNA expression levels of Long Term Potentialisation (LTP) biomarkers, i.e CREB (A), PSD95 (B) and BDNF (C) in C57B16J OHSC mice treated chronically with Aftin-5. OHSC culture media of OHSC were replaced by incubation medium containing Aftin-5 (50 μM; A50) or vehicle (0.1% DMSO; Veh). 10 days later, total mRNA in lysate was isolated and purified, cDNAs were then synthesized from […] of total mRNA. cDNAs were amplified by quantitative RT-PCR and the relative expression of specific genes was normalized to the housekeeping gene HPRT1 (2^—ΔCt). […] Data expressed as means+/−SEM from q=3 independent experiments with n=4-6 inserts/condition and 10 slices/insert. […]\nThe impact of Aftin-5 on gene expression of different biomarkers was determined by measuring mRNA levels of selected BDNF, CREB, PS95, INS Receptor/IGF-1 receptor, IL-1β, IL-6 in OHSC treated chronically with Aftin-5 or in a total brain from mice exposed to Aftin-5 at either 8 or 30 mg/Kg. […] RNA concentration was measured spectrophotometrically at 260 nm in a NanoDrop 2000c (Thermo Scientific, Villebon-sur-Yvette, France) (sample A260 nm/A280 nm ratios over 1.8 indicated reduced genomic DNA contamination). cDNAs were synthesized from 0.5 μg of total RNA with RT^2 First Strand kit (Qiagen, Courtaboeuf, France) according to the manufacturer's protocol and stored at −80° C. […]"}}, "data": [{"smiles": "CC[C@H](CO)Nc1nc(N(C)c2ccccc2)c2ncn(C(C)C)c2n1", "note": "[Aftin-5]", "values": [{"measurement": "IL-10 mRNA synthesis", "setting": "IL-10", "value": "no changes"}, {"measurement": "improvement of long term object recognition memory in NOR test", "setting": "[1]", "value": "does not achieve significance"}, {"measurement": "IL-6 mRNA synthesis", "setting": "IL-6", "value": "do not achieve significance"}, {"measurement": "PSD95 mRNA", "setting": "PSD95", "value": "transcriptional upregulation"}]}]}
